Columns and labels:
Experiment in all cases: relative viability (nuclei count vs DMSO), 5 days (fraction); higher = more cells survive
[1] = system: A-427
Procedure, shortened: (§1)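 Nuclei were stained with Hoechst during a one-step fixation (final 0.05% Triton X-100, 1% formaldehyde, 1 ug/ml Hoechst) carried out 5 days after dosing, then counted on 4× images. The cells, lung cancer lines in 1536-well plates, had been dosed by pin tool the day after seeding with one drug alone or a fixed anchor-drug dose plus five library-drug doses (not always all listed) in √10 steps. Relative viability is the nuclei count in treated wells divided by that in vehicle wells, and each value is the median of duplicate plates.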

[2] = system: CAL-12T
Procedure, shortened: as §1

[3] = system: COR-L 105
Procedure, shortened: as §1

[4] = system: EPLC-272H
Procedure, shortened: as §1

[5] = system: HCC-15
Procedure, shortened: as §1

[6] = system: HCC-44
Procedure, shortened: as §1

[7] = system: LC-2-ad
Procedure, shortened: as §1

[8] = system: LCLC-97TM1
Procedure, shortened: as §1

[9] = system: NCI-H1395
Procedure, shortened: as §1

[10] = system: NCI-H1734
Procedure, shortened: as §1

[11] = system: NCI-H1915
Procedure, shortened: as §1

[12] = system: NCI-H1975
Procedure, shortened: as §1

[13] = system: NCI-H2023
Procedure, shortened: as §1

[14] = system: NCI-H2342
Procedure, shortened: as §1

[15] = system: NCI-H2347
Procedure, shortened: as §1

[16] = system: NCI-H2405
Procedure, shortened: as §1

[17] = system: NCI-H520
Procedure, shortened: as §1

[18] = system: NCI-H838
Procedure, shortened: as §1

[19] = system: SW 1573
Procedure, shortened: as §1

[20] = system: SW 900
Procedure, shortened: as §1

[21] = system: UMC-11
Procedure, shortened: as §1

CCNC(=O)c1noc(-c2cc(C(C)C)c(O)cc2O)c1-c1ccc(CN2CCOCC2)cc1 [Luminespib] + O=C(CCCCCCC(=O)Nc1ccccc1)NO [Vorinostat] (partner 1 µM)
relative viability ([1]; first compound 0.002 µM): 0.855 | relative viability ([1]; first compound 0.006325 µM): 0.319 | relative viability ([1]; first compound 0.02 µM): 0.807 | relative viability ([1]; first compound 0.06325 µM): 0.327 | relative viability ([1]; first compound 0.2 µM): 0.247 | relative viability ([2]; first compound 0.002 µM): 0.725 | relative viability ([2]; first compound 0.006325 µM): 0.802 | relative viability ([2]; first compound 0.02 µM): 0.29 | relative viability ([2]; first compound 0.06325 µM): 0.101 | relative viability ([2]; first compound 0.2 µM): 0.118 | relative viability ([3]; first compound 0.002 µM): 0.917 | relative viability ([3]; first compound 0.006325 µM): 0.84 | relative viability ([3]; first compound 0.02 µM): 0.959 | relative viability ([3]; first compound 0.06325 µM): 0.43 | relative viability ([3]; first compound 0.2 µM): 0.278 | relative viability ([4]; first compound 0.002 µM): 0.402 | relative viability ([4]; first compound 0.006325 µM): 0.381 | relative viability ([4]; first compound 0.02 µM): 0.505 | relative viability ([4]; first compound 0.06325 µM): 0.0961 | relative viability ([4]; first compound 0.2 µM): 0.171 | relative viability ([5]; first compound 0.002 µM): 0.792 | relative viability ([5]; first compound 0.006325 µM): 0.805 | relative viability ([5]; first compound 0.02 µM): 0.942 | relative viability ([5]; first compound 0.06325 µM): 0.583 | relative viability ([5]; first compound 0.2 µM): 0.173 | relative viability ([6]; first compound 0.002 µM): 1.1 | relative viability ([6]; first compound 0.006325 µM): 1.13 | relative viability ([6]; first compound 0.02 µM): 1.19 | relative viability ([6]; first compound 0.06325 µM): 1.11 | relative viability ([6]; first compound 0.2 µM): 0.924 | relative viability ([7]; first compound 0.002 µM): 0.647 | relative viability ([7]; first compound 0.006325 µM): 0.727 | relative viability ([7]; first compound 0.02 µM): 0.554 | relative viability ([7]; first compound 0.06325 µM): 0.465 | relative viability ([7]; first compound 0.2 µM): 0.179 | relative viability ([8]; first compound 0.002 µM): 0.555 | relative viability ([8]; first compound 0.006325 µM): 0.545 | relative viability ([8]; first compound 0.06325 µM): 0.0694 | relative viability ([8]; first compound 0.2 µM): 0.0638 | relative viability ([9]; first compound 0.002 µM): 0.731 | relative viability ([9]; first compound 0.006325 µM): 0.751 | relative viability ([9]; first compound 0.02 µM): 0.508 | relative viability ([9]; first compound 0.06325 µM): 0.289 | relative viability ([9]; first compound 0.2 µM): 0.289 | relative viability ([10]; first compound 0.002 µM): 0.719 | relative viability ([10]; first compound 0.006325 µM): 0.719 | relative viability ([10]; first compound 0.02 µM): 0.436 | relative viability ([10]; first compound 0.06325 µM): 0.132 | relative viability ([10]; first compound 0.2 µM): 0.123 | relative viability ([11]; first compound 0.002 µM): 0.556 | relative viability ([11]; first compound 0.006325 µM): 0.506 | relative viability ([11]; first compound 0.02 µM): 0.415 | relative viability ([11]; first compound 0.06325 µM): 0.477 | relative viability ([11]; first compound 0.2 µM): 0.0602 | relative viability ([12]; first compound 0.002 µM): 0.736 | relative viability ([12]; first compound 0.006325 µM): 0.632 | relative viability ([12]; first compound 0.02 µM): 0.592 | relative viability ([12]; first compound 0.06325 µM): 0.138 | relative viability ([12]; first compound 0.2 µM): 0.147 | relative viability ([13]; first compound 0.002 µM): 0.7 | relative viability ([13]; first compound 0.006325 µM): 0.527 | relative viability ([13]; first compound 0.02 µM): 0.236 | relative viability ([13]; first compound 0.06325 µM): 0.0453 | relative viability ([13]; first compound 0.2 µM): 0.0503 | relative viability ([14]; first compound 0.002 µM): 0.766 | relative viability ([14]; first compound 0.006325 µM): 0.809 | relative viability ([14]; first compound 0.02 µM): 0.467 | relative viability ([14]; first compound 0.06325 µM): 0.679 | relative viability ([14]; first compound 0.2 µM): 0.416 | relative viability ([15]; first compound 0.002 µM): 0.54 | relative viability ([15]; first compound 0.006325 µM): 0.413 | relative viability ([15]; first compound 0.02 µM): 0.589 | relative viability ([15]; first compound 0.06325 µM): 0.38 | relative viability ([15]; first compound 0.2 µM): 0.263 | relative viability ([16]; first compound 0.002 µM): 1.11 | relative viability ([16]; first compound 0.02 µM): 0.884 | relative viability ([16]; first compound 0.06325 µM): 0.194 | relative viability ([16]; first compound 0.2 µM): 0.165 | relative viability ([17]; first compound 0.002 µM): 0.748 | relative viability ([17]; first compound 0.006325 µM): 0.747 | relative viability ([17]; first compound 0.02 µM): 0.624 | relative viability ([17]; first compound 0.06325 µM): 0.197 | relative viability ([17]; first compound 0.2 µM): 0.166 | relative viability ([18]; first compound 0.002 µM): 0.778 | relative viability ([18]; first compound 0.006325 µM): 0.655 | relative viability ([18]; first compound 0.02 µM): 0.785 | relative viability ([18]; first compound 0.06325 µM): 0.151 | relative viability ([18]; first compound 0.2 µM): 0.153 | relative viability ([19]; first compound 0.002 µM): 0.742 | relative viability ([19]; first compound 0.006325 µM): 0.874 | relative viability ([19]; first compound 0.02 µM): 0.212 | relative viability ([19]; first compound 0.06325 µM): 0.0903 | relative viability ([19]; first compound 0.2 µM): 0.0874 | relative viability ([20]; first compound 0.002 µM): 0.455 | relative viability ([20]; first compound 0.006325 µM): 0.489 | relative viability ([20]; first compound 0.02 µM): 0.266 | relative viability ([20]; first compound 0.06325 µM): 0.124 | relative viability ([20]; first compound 0.2 µM): 0.0992 | relative viability ([21]; first compound 0.002 µM): 0.393 | relative viability ([21]; first compound 0.006325 µM): 0.402 | relative viability ([21]; first compound 0.02 µM): 0.345 | relative viability ([21]; first compound 0.06325 µM): 0.302 | relative viability ([21]; first compound 0.2 µM): 0.152
